# From patent publication US9518018B2, “3-alkoxy, thioalkyl and amino-4-amino-6-(substituted)picolinates and their use as herbicides” (Dow AgroSciences LLC, priority 2011, dated 2016)
# System: desired test plant species
# Assay: Foliar-applied postemergence herbicidal activity in direct seeded rice (Table 6)
# Format: in vivo
# Conditions: 21 DAA
# Text: Seeds or nutlets of the desired test plant species were planted in a soil matrix prepared by mixing a loam soil (43 percent silt, 19 percent clay, and 38 percent sand, with a pH of about 8.1 and an organic matter content of about 1.5 percent) and river sand in an 80 to 20 ratio. The soil matrix was contained in plastic pots with a surface area of 139.7 cm^2. When required to ensure good germination and healthy plants, a fungicide treatment and/or other chemical or physical treatment was applied. The plants were grown for 10-17 d in a greenhouse with an approximate 14-h photoperiod which was maintained at about 29° C. during the day and 26° C. during the night. Nutrients and water were added on a regular basis and supplemental lighting was provided with overhead metal halide 1000-Watt lamps as necessary. The plants were employed for testing when they reached the second or third true leaf stage. Treatments consisted of compounds 45, 34, and 66. Weighed amounts of technical compounds were placed in individual 25 mL glass vials and dissolved in 8 mL of 97:3 v/v acetone-DMSO to obtain stock solutions. […] The spray application solutions were prepared by removing 4 mL of the stock solution and diluting with 4 mL of 97:3 v/v acetone-DMSO and continued serial dilution to obtain 1⁄2×, 1⁄4×, 1⁄8×, and 1/16× rates of the high rate. Spray solutions were diluted to the appropriate final concentrations with the addition of 8 mL of an aqueous mixture of 1.875% (v/v) Agri-dex crop oil concentrate. The final 12-mL spray solutions each contained 1.25% (v/v) Agri-dex crop oil concentrate, 32.3% acetone, and 1.0% DMSO. Compound requirements are based upon a 12 mL application volume at a rate of 187 L/ha. Spray solutions were applied to the plant material with an overhead Mandel track sprayer equipped with […] nozzles calibrated to deliver 187 L/ha over an application area of 0.503 square meters (m^2) at a spray height of 18 inches ([…]) above average plant canopy height. Control plants were sprayed in the same manner with the solvent blank. The treated plants and control plants were placed in a greenhouse as described above and watered by sub-irrigation to prevent wash-off of the test compounds. After approximately 3 weeks, the condition of the test plants, compared with that of the untreated plants, was determined visually and scored on a scale of 0 to 100 percent where 0 corresponds to no injury and 100 corresponds to complete kill. By applying the well-accepted probit analysis as described by J. Berkson in Journal of the […], 48, 565 (1953) and by D. Finney in “Probit Analysis” Cambridge University Press (1952) or by plotting the mean data and fitting a logarithmic curve to the portion of the data where there was a dose response using Microsoft Excel®, the above data can be used to calculate GR50 and GR90 values, which are defined as growth reduction factors that correspond to the effective dose of herbicide required to kill or control 50 percent or 90 percent, respectively, of a target plant.
compound,measurement,setting,value
"COc1c(C(=O)OCc2ccccc2)nc(-c2ccc(Cl)c(OC)c2F)c(F)c1N [Compound 66, benzyl 4-amino-6-(4-chloro-2-fluoro-3-methoxyphenyl)-5-fluoro-3-methoxypicolinate]",Mean Visual Injury (%)-21 Days After Application AESSE,"AESSE (Aeschynomene sensitiva, sensitive jointvetch), 4.38 g ae/ha",100%
same,Mean Visual Injury (%)-21 Days After Application AESSE,"AESSE (Aeschynomene sensitiva, sensitive jointvetch), 8.75 g ae/ha",100%
same,Mean Visual Injury (%)-21 Days After Application AESSE,"AESSE (Aeschynomene sensitiva, sensitive jointvetch), 17.5 g ae/ha",100%
same,Mean Visual Injury (%)-21 Days After Application AESSE,"AESSE (Aeschynomene sensitiva, sensitive jointvetch), 35 g ae/ha",100%
same,Mean Visual Injury (%)-21 Days After Application AESSE,"AESSE (Aeschynomene sensitiva, sensitive jointvetch), 70 g ae/ha",100%
same,GR50 AESSE,"AESSE (Aeschynomene sensitiva, sensitive jointvetch), dose to kill or control 50 percent",<4.38 g ae/ha
same,GR90 AESSE,"AESSE (Aeschynomene sensitiva, sensitive jointvetch), dose to kill or control 90 percent",<4.38 g ae/ha
same,Mean Visual Injury (%)-21 Days After Application BRAPP,"BRAPP (Brachiaria platyphylla, broadleaf signalgrass), 2.19 g ae/ha",53%
same,Mean Visual Injury (%)-21 Days After Application BRAPP,"BRAPP (Brachiaria platyphylla, broadleaf signalgrass), 4.38 g ae/ha",72%
same,Mean Visual Injury (%)-21 Days After Application BRAPP,"BRAPP (Brachiaria platyphylla, broadleaf signalgrass), 8.75 g ae/ha",83%
same,Mean Visual Injury (%)-21 Days After Application BRAPP,"BRAPP (Brachiaria platyphylla, broadleaf signalgrass), 17.5 g ae/ha",90%
same,Mean Visual Injury (%)-21 Days After Application BRAPP,"BRAPP (Brachiaria platyphylla, broadleaf signalgrass), 35 g ae/ha",87%
same,Mean Visual Injury (%)-21 Days After Application BRAPP,"BRAPP (Brachiaria platyphylla, broadleaf signalgrass), 70 g ae/ha",93%
same,GR50 BRAPP,"BRAPP (Brachiaria platyphylla, broadleaf signalgrass), dose to kill or control 50 percent",<2.19 g ae/ha
same,GR90 BRAPP,"BRAPP (Brachiaria platyphylla, broadleaf signalgrass), dose to kill or control 90 percent",34.4 g ae/ha
same,Mean Visual Injury (%)-21 Days After Application CYPDI,"CYPDI (Cyperus difformis, small-flower flatsedge), 2.19 g ae/ha",70%
same,Mean Visual Injury (%)-21 Days After Application CYPDI,"CYPDI (Cyperus difformis, small-flower flatsedge), 4.38 g ae/ha",91%
same,Mean Visual Injury (%)-21 Days After Application CYPDI,"CYPDI (Cyperus difformis, small-flower flatsedge), 8.75 g ae/ha",96%
same,Mean Visual Injury (%)-21 Days After Application CYPDI,"CYPDI (Cyperus difformis, small-flower flatsedge), 17.5 g ae/ha",100%
same,Mean Visual Injury (%)-21 Days After Application CYPDI,"CYPDI (Cyperus difformis, small-flower flatsedge), 35 g ae/ha",99%
same,Mean Visual Injury (%)-21 Days After Application CYPDI,"CYPDI (Cyperus difformis, small-flower flatsedge), 70 g ae/ha",97%
same,GR50 CYPDI,"CYPDI (Cyperus difformis, small-flower flatsedge), dose to kill or control 50 percent",<2.19 g ae/ha
same,GR90 CYPDI,"CYPDI (Cyperus difformis, small-flower flatsedge), dose to kill or control 90 percent",6.6 g ae/ha
same,Mean Visual Injury (%)-21 Days After Application CYPES,"CYPES (Cyperus esculentus, yellow nutsedge), 2.19 g ae/ha",60%
same,Mean Visual Injury (%)-21 Days After Application CYPES,"CYPES (Cyperus esculentus, yellow nutsedge), 4.38 g ae/ha",67%
same,Mean Visual Injury (%)-21 Days After Application CYPES,"CYPES (Cyperus esculentus, yellow nutsedge), 8.75 g ae/ha",93%
same,Mean Visual Injury (%)-21 Days After Application CYPES,"CYPES (Cyperus esculentus, yellow nutsedge), 35 g ae/ha",94%
same,Mean Visual Injury (%)-21 Days After Application CYPES,"CYPES (Cyperus esculentus, yellow nutsedge), 70 g ae/ha",95%
same,GR50 CYPES,"CYPES (Cyperus esculentus, yellow nutsedge), dose to kill or control 50 percent",<2.19 g ae/ha
same,GR90 CYPES,"CYPES (Cyperus esculentus, yellow nutsedge), dose to kill or control 90 percent",13.1 g ae/ha
same,Mean Visual Injury (%)-21 Days After Application CYPIR,"CYPIR (Cyperus iria, rice flatsedge), 2.19 g ae/ha",43%
same,Mean Visual Injury (%)-21 Days After Application CYPIR,"CYPIR (Cyperus iria, rice flatsedge), 4.38 g ae/ha",81%
same,Mean Visual Injury (%)-21 Days After Application CYPIR,"CYPIR (Cyperus iria, rice flatsedge), 8.75 g ae/ha",99%
same,Mean Visual Injury (%)-21 Days After Application CYPIR,"CYPIR (Cyperus iria, rice flatsedge), 17.5 g ae/ha",100%
same,Mean Visual Injury (%)-21 Days After Application CYPIR,"CYPIR (Cyperus iria, rice flatsedge), 35 g ae/ha",100%
same,Mean Visual Injury (%)-21 Days After Application CYPIR,"CYPIR (Cyperus iria, rice flatsedge), 70 g ae/ha",99%
same,GR50 CYPIR,"CYPIR (Cyperus iria, rice flatsedge), dose to kill or control 50 percent",2.4 g ae/ha
same,GR90 CYPIR,"CYPIR (Cyperus iria, rice flatsedge), dose to kill or control 90 percent",6.4 g ae/ha
same,Mean Visual Injury (%)-21 Days After Application ECHCG,"ECHCG (Echinochloa crus-galli, barnyardgrass), 2.19 g ae/ha",78%
same,Mean Visual Injury (%)-21 Days After Application ECHCG,"ECHCG (Echinochloa crus-galli, barnyardgrass), 4.38 g ae/ha",86%
same,Mean Visual Injury (%)-21 Days After Application ECHCG,"ECHCG (Echinochloa crus-galli, barnyardgrass), 8.75 g ae/ha",95%
same,Mean Visual Injury (%)-21 Days After Application ECHCG,"ECHCG (Echinochloa crus-galli, barnyardgrass), 17.5 g ae/ha",96%
same,Mean Visual Injury (%)-21 Days After Application ECHCG,"ECHCG (Echinochloa crus-galli, barnyardgrass), 35 g ae/ha",97%
same,Mean Visual Injury (%)-21 Days After Application ECHCG,"ECHCG (Echinochloa crus-galli, barnyardgrass), 70 g ae/ha",95%
same,GR50 ECHCG,"ECHCG (Echinochloa crus-galli, barnyardgrass), dose to kill or control 50 percent",<42.19 g ae/ha
same,GR90 ECHCG,"ECHCG (Echinochloa crus-galli, barnyardgrass), dose to kill or control 90 percent",8.3 g ae/ha
same,Mean Visual Injury (%)-21 Days After Application ECHCO,"ECHCO (Echinochloa colonum, junglerice), 2.19 g ae/ha",62%
